{"source": "patent US20080234254A1", "about": "“Inhibitors of Histone Deacetylase” (UNIVERSITY OF LEEDS, priority 2004, published 2008)", "key": {"SK-MEL-28": {"tested_on": "SK-MEL-28", "test": "Screening against cancer cell lines: SK-MEL-28 (Melanoma)", "format": "cell-based", "from_the_text": "Screening of Benzamide Derivatives Against Cancer Cell Lines Tables 1 and 2 tabulate by way of example the results obtained for compounds (4) and (6).\n7 melanoma cancer cell lines were screened against both compound (4) and MS275."}, "786-0": {"tested_on": "786-0", "test": "Comparison test versus MS275: 786-0 (renal cancer)", "format": "cell-based", "conditions": "Homo sapiens, read-out: potency (quantity not named; values match GI50 of Table 1)", "from_the_text": "7 renal cancer cell lines were screened against both compound (4) and MS275."}}, "note": "Like-named read-outs stand apart in the source and are kept apart here."}
{"compound": "C=C(CN1CCc2ccccc2C1)c1ccc(C(=O)Nc2ccccc2N)cc1", "note": "[Compound (4), N-(2-Amino-phenyl)-4-[1-(3,4-dihydroisoquinolin-2(1H)-ylmethyl)vinyl]benzamide]", "values": [{"measurement": "GI50", "setting": "SK-MEL-28; Homo sapiens, SK-MEL-28, Melanoma, Table 1, read-out: GI50", "result": 389, "unit": "nM"}, {"measurement": "CC50", "setting": "SK-MEL-28; Homo sapiens, SK-MEL-28, Melanoma, Table 1, read-out: LC50 (the source's name)", "result": "> 50000", "unit": "nM"}, {"measurement": "GI50", "setting": "SK-MEL-28; Homo sapiens, SK-MEL-28, melanoma, comparison versus MS275, read-out: potency (quantity not named; values match GI50 of Table 1)", "result": 390, "unit": "nM"}, {"measurement": "TGI", "setting": "SK-MEL-28; SK-MEL-28, Melanoma, Table 1", "result": 6500, "unit": "nM"}, {"measurement": "GI50", "setting": "786-0", "result": 1050, "unit": "nM"}]}
